Data taken from patent US6492330B1, “Antiangiogenic drugs” (National Institute of Immunology, priority 1996, dated 2002).
Positions of bridges follow the written chain, without caps; N, C: chain ends. Non-standard residues stand in square brackets, D forms with d. No end group written: not given here. Deg = CCC(N)(CC)C(=O)O; Aib = CC(C)(N)C(=O)O

Legend:
Format in all cases: cell-based
[1] = tested on: ECV.304 cells; assay: MTT assay, inhibition of proliferation of endothelial cells ECV.304; conditions: 72 hours (Table 2)
Experimental: 150 μl of medium was added to the wells of a 96-well tissue culture plate (Nunc, Denmark) followed by 30 μl of cell suspension. The plate was left in incubator (37° C., 5% CO2) overnight. Each of the seven peptides of the combination MuJ-7 were added at three molar concentrations of 10^−7M, 10^−8M and 10^−9M. 20 μl of MuJ-7 at three concentrations of N/10, N and 10N was added to marked wells of the 96-well plate. The value of N for each of the individual peptides was 10^−8M for VIP2, BOM1, SP1, VIP3, and SOM2 and 10^−7M for VIP1, and 10^−9M for SOM1. Each concentration was plated in triplicate. 20 μl of medium alone was added to control wells while wells without cells served as blanks. A total volume of 200 μl was ensured in each well and the plate was left in an incubator (37° C., 5% CO2). After 72 hours of incubation an MTT assay was performed and percentage inhibition in proliferation of treated cells was calculated with respect to control cells.
150 μl of medium was added to the wells of a 96-well tissue culture plate (Nunc, Denmark) followed by 30 μl of cell suspension. The plate was left in incubator (37° C., 5% CO2) overnight. Novel peptides shown below were incubated with cells at concentration range of 10^−7 to 10^−9 M (except DT71 at concentration range 10^−8 to 10^−10 M). Each concentration was plated in triplicates. 20 μl of medium alone was added to control wells while wells without cells served as blanks. A total volume of 200 μl was ensured in each well and plate was left in incubator (37° C., 5% CO2). After 72 hours of incubation an MTT assay was performed and percentage inhibition in proliferation of treated cells was calculated with respect to control cells.

[2] = tested on: endothelial cells ECV.304; assay: Migration assay across 8 μm polycarbonate filter transwell inserts; conditions: analog at optimum concentration −8M, 24 hours (Table 4)
Experimental: Polycarbonate filter transwell inserts (24 well size) with 8 μm pores (Nunc, Denmark) were used for the migration assay. ECV304 (10^4 cells/200 ul DMEM containing 0.1% BSA) was added to the upper chamber. The lower chamber contained 600 ul of DMEM with 0.1% BSA. Individual peptides of the composition MuJ-7 at six different concentrations each of N/100, N/10, N, 10N, 100N and 1000N were added directly to the upper well and the plate incubated at 37° C. for 24 hours. The cells migrated to the lower chamber were viewed randomly at five different phase-contrast microscopic fields and the total number of cells counted using Video Pro 32 Image Analysis system. Percent inhibition in migration was determined with reference to the Control. Similarly, […] different concentrations of N/100, N/10, N, 10N, 100N and 1000N of MuJ-7 were added directly to the upper well and the plate incubated at 37° C. for 24 hours. The cells migrated to the lower chamber were counted as described above.
Polycarbonate filter trasnwell inserts (24 well size) with 8 μm pores (Nuno, Denmark) were used for the migration assay. ECV304 (10^4 cells/200 ul DMEM containing 0.1% BSA) was added to the upper chamber. The lower chamber contained 600 ul of DMEM with 0.1% BSA. […] The sequence of each of the peptides added are described above. The cells migrated to the lower chamber were viewed randomly at five different phase-contrast microscopic fields and the total number of cells counted using Video Pro 32 Image Analysis system. Percent inhibition in migration was determined with reference to Control. […]

[3] = tested on: ECV304; assay: Tube-like-structure (TLS) formation on Matrigel; conditions: peptide −8M, 24 hours
Experimental: Matrigel (350 ul) was placed into each well of a 24-well culture plate at 4° C. and was allowed to polymerize by incubation at 37° C. for 30 min. ECV304 (1.5×10^4) were seeded on the Matrigel in 500 ul DMEM supplemented with 10% FBS. MuJ-7 at four different concentrations of 0.25×, 0.5×, ×, & 5.0× were added and. the plate incubated at 37° C. for 24 hour. “×” denotes normal concentration of MuJ-7 where molar concentration of individual peptides was 10^−8 M for VIP2, BOM1, SP1, VIP3 and SOM2 and 10^−7 M for VIP1 and 10^−9 M for SOM1. […] Percent inhibition in tube area was determined with reference to untreated cells.
Matrigel (350 ul) was placed into each well of a 24-well culture plate at 4° C. and was allowed to polymerize by incubation at 37° C. for 30 min. ECV304 (1.5×10^4) were seeded on the Matrigel in 500 ul DMEM supplemented with 10% FBS. […] Percent inhibition in tube length was determined with reference to untreated cells.
Matrigel (350 ul) was placed into each well of a 24-well culture plate at 4° C. and was allowed to polymerize by incubation at 37° C. for 30 min. ECV304 (1.5×10^4) were seeded on the Matrigel in 500 ul DMEM supplemented with 10% FBS. Individual peptides of the composition MuJ-7 at three different concentrations each of N/10, N, and 10N were added and the plate incubated at 37° C. for 24 hours. […] Percent inhibition in tube length was determined with reference to Control. Similarly, three different concentrations of N/10, N, and 10N of MuJ-7 were added to the well and the plate incubated at 37° C. for 24 hours. Percent inhibition in tube length was determined with reference to Control as described previously (Table 10).

| Substance | PERCENT INHIBITION OF PROLIFERATION ([1]; ECV304, 10^−7M) [%] | PERCENT INHIBITION OF PROLIFERATION ([1]; ECV304, 10^−8M) [%] | PERCENT INHIBITION OF PROLIFERATION ([1]; ECV304, 10^−9M) [%] | PERCENT INHIBITION MIGRATION [2] [%] | INHIBITION OF TUBE LENGTH [3] [%] |
| --- | --- | --- | --- | --- | --- |
| Aib-Met-Gln-Trp-Phe-Aib-NH2 ([Aib]MQWF[Aib]-NH2; N-terminus assumed; SMILES CSCC[C@H](NC(=O)C(C)(C)N)C(=O)N[C@@H](CCC(N)=O)C(=O)N[C@@H](Cc1c[nH]c2ccccc12)C(=O)N[C@@H](Cc1ccccc1)C(=O)NC(C)(C)C(N)=O) [DT-31] | 1.3 | 14.1 | 6.1 | 0 | 17.1 |
| Aib-Met-Tyr-Pro-Thr-Tyr-Aib-Lys-OH ([Aib]MYPTY[Aib]K-OH; N-terminus assumed; SMILES CSCC[C@H](NC(=O)C(C)(C)N)C(=O)N[C@@H](Cc1ccc(O)cc1)C(=O)N1CCC[C@H]1C(=O)N[C@H](C(=O)N[C@@H](Cc1ccc(O)cc1)C(=O)NC(C)(C)C(=O)N[C@@H](CCCCN)C(=O)O)[C@@H](C)O) [DT-11] | 16.7 | 18.7 | 19.9 | 82.5 | 3.6 |
| Aib-Met-Tyr-Pro-Thr-Tyr-Deg-Lys-OH ([Aib]MYPTY[Deg]K-OH; N-terminus assumed; SMILES CCC(CC)(NC(=O)[C@H](Cc1ccc(O)cc1)NC(=O)[C@@H](NC(=O)[C@@H]1CCCN1C(=O)[C@H](Cc1ccc(O)cc1)NC(=O)[C@H](CCSC)NC(=O)C(C)(C)N)[C@@H](C)O)C(=O)N[C@@H](CCCCN)C(=O)O) [DT-18] | 23.3 | 10.9 | 14.4 | 73.2 | 0 |
| Ala-Aib-Cys-Lys-Asn-Phe-Phe-D-Trp-Lys-Thr-Phe-Thr-Ser-Cys (3-14 Disulphide bond) (A[Aib]CKNFF[dW]KTFTSC; disulfide 3-14) [DT-62A] | 11.7 | 20.1 | 25.7 | 62.2 | 44.1 |
| Ala-Aib-Cys-Lys-Asn-Phe-Phe-D-Trp-Lys-Thr-Phe-Thr-Ser-Cys (A[Aib]CKNFF[dW]KTFTSC; ends and bridges not checked) [DT-62B] | 14.0 | 3.8 | 12.8 | 8.5 | 0 |
| D-Leu-Met-Tyr-Pro-Thr-Tyr-Aib-Lys-OH ([dL]MYPTY[Aib]K-OH; N-terminus assumed; SMILES CSCC[C@H](NC(=O)[C@H](N)CC(C)C)C(=O)N[C@@H](Cc1ccc(O)cc1)C(=O)N1CCC[C@H]1C(=O)N[C@H](C(=O)N[C@@H](Cc1ccc(O)cc1)C(=O)NC(C)(C)C(=O)N[C@@H](CCCCN)C(=O)O)[C@@H](C)O) [DT-12] | 20.3 | 16.1 | 15.5 | 58.7 | 17.1 |
